In this assay the target is T1, Aminopeptidase B (Mus musculus, UniProt Q8VCT3).
T1 sequence (Q8VCT3 whole entry): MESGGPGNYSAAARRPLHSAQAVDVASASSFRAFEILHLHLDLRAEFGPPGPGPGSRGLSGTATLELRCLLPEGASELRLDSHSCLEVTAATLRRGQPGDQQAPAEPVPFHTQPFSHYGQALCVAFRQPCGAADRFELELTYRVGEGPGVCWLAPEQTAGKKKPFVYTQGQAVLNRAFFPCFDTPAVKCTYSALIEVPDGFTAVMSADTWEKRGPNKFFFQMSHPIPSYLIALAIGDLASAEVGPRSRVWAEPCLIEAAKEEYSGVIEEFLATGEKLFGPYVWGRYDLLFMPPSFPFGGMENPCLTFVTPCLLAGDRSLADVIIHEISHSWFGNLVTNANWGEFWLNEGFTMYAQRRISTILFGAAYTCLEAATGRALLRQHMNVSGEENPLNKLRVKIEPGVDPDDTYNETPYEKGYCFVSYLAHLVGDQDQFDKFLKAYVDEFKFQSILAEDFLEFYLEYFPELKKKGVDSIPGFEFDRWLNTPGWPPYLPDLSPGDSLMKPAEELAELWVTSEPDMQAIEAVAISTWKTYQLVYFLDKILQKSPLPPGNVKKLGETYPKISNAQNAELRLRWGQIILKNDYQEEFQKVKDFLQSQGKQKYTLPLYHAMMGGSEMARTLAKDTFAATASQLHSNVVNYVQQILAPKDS

As for `CC(C)C[C@H](NC(=O)[C@@H](O)[C@H](N)Cc1ccccc1)C(=O)O`, inhibition was half-maximal at 160 µM (IC50).

The record behind these values is BindingDB's records for doi:10.1021/bi00419a019 (University of Wisconsin, 1988).
